In US12594276B2, “Inhibitors of human immunodeficiency virus replication” (ViiV Healthcare UK (No.5) Limited, priority 2024, dated 2026) one finds EC50 and CC50 data, which are given here for eleven molecules.

Data set [1] concerns recombinant NL4-3 virus (nef section replaced with Renilla luciferase gene) in MT-2 cells. Nature of the data set: HIV cell culture assay (antiviral activity, luciferase readout). Format: cell-based. To be noted: Renilla, NL43, MT-2 cells infected for 4-5 days with recombinant NL4-3 Renilla luciferase virus. In short, it runs like this:
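MT-2 cells were infected for 4-5 days with reporter virus made by transfecting the recombinant NL4-3 proviral clone into 293T cells, in the presence of serial compound dilutions. Luciferase activity was read with a live-cell substrate. EC50 came from the exponential median effect equation, (Fa)=1/[1+(ED50/drug conc.)m].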

Data set [2] can be described thus: Compound cytotoxicity, XTT-based colorimetric assay. Format: cell-based. To be noted: human; uninfected MT2 cells, day 4, XTT; read-out: CC50. In short, it runs like this:
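Cells seeded as for the antiviral assay but left uninfected (MT2). Compound exposure continued to day 4. XTT reagent added and colour read. CC50 calculated.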
Background: Formazan colour is commonly taken as a measure of viable cells.

A word on the EC50: it is the concentration that produces a half-maximal response. By CC50 is commonly meant the concentration that lowers cell viability or growth by half. Turning to `CS(=O)(=O)Nc1nn(CCN2C[C@H]3C[C@@H]2CO3)c2c(-n3c([C@H](Cc4cc(F)cc(F)c4)NC(=O)Cn4nc(C5CC5)c5c4C[C@@H]4C[C@H]54)nc4nc(C5CCC(F)(F)CC5)cc(C(F)F)c4c3=O)ccc(Cl)c12` (atropisomer, axis not shown; (P)) [Example 298, N-[(1S)-1-[(3P)-3-(4-chloro-3-methanesulfonamido-1-{2-[(1R,4R)-2-oxa-5-azabicyclo[2.2.1]heptan-5-yl]ethyl}-1H-indazol-7-yl)-7-(4,4-difluorocyclohexyl)-5-(difluoromethyl)-4-oxo-3H,4H-pyrido[2,3-d]pyrimidin-2-yl]-2-(3,5-difluorophenyl)ethyl]-2-[(2S,4S)-9-cyclopropyl-7,8-diazatricyclo[4.3.0.0^2,^4]nona-1(6),8-dien-7-yl]acetamide], the EC50 in data set [1] is 0.016 nM. For the same molecule, in data set [2], the CC50 at 4 days was more than 50 nM.
`CS(=O)(=O)Nc1nn(CCN2CC(F)(F)C2)c2c(-n3c([C@H](Cc4cc(F)cc(F)c4)NC(=O)Cn4nc(C(F)F)c5c4C(F)(F)[C@@H]4C[C@H]54)nc4nc(C5CCC(F)(F)CC5)cc(C(F)F)c4c3=O)ccc(Cl)c12` (atropisomer, axis not shown; (P)) [Example 307, N-[(1S)-1-[(3P)-3-{4-chloro-1-[2-(3,3-difluoroazetidin-1-yl)ethyl]-3-methanesulfonamido-1H-indazol-7-yl}-7-(4,4-difluorocyclohexyl)-5-(difluoromethyl)-4-oxo-3H,4H-pyrido[2,3-d]pyrimidin-2-yl]-2-(3,5-difluorophenyl)ethyl]-2-[(2S,4R)-9-(difluoromethyl)-5,5-difluoro-7,8-diazatricyclo[4.3.0.0^2,^4]nona-1(6),8-dien-7-yl]acetamide]: the 50% effective concentration (EC50) in data set [1] turned out to be 0.023 nM. Besides, the CC50 at 4 days in data set [2] is more than 50 nM.
On to `Cc1cc(C2CCC(F)(F)CC2)nc2nc([C@H](Cc3cc(F)cc(F)c3)NC(=O)Cn3nc(C(F)F)c4c3C(F)(F)[C@@H]3C[C@H]43)n(-c3ccc(Cl)c4c(NS(C)(=O)=O)nn(CCN5C[C@@H]6C[C@H]5CC6(F)F)c34)c(=O)c12` (atropisomer, axis not shown; (P)) [Example 310, N-[(1S)-1-[(3P)-3-(4-chloro-1-{2-[(1S,4S)-5,5-difluoro-2-azabicyclo[2.2.1]heptan-2-yl]ethyl}-3-methanesulfonamido-1H-indazol-7-yl)-7-(4,4-difluorocyclohexyl)-5-methyl-4-oxo-3H,4H-pyrido[2,3-d]pyrimidin-2-yl]-2-(3,5-difluorophenyl)ethyl]-2-[(2S,4R)-9-(difluoromethyl)-5,5-difluoro-7,8-diazatricyclo[4.3.0.0^2,^4]nona-1(6),8-dien-7-yl]acetamide], for which, in data set [1], the EC50 is 0.019 nM. Besides, the CC50 at 4 days in data set [2] was more than 50 nM.
For `Cc1cc(C2CCC(F)(F)CC2)nc2nc([C@H](Cc3cc(F)cc(F)c3)NC(=O)Cn3nc(C4CC4)c4c3C[C@@H]3C[C@H]43)n(-c3ccc(Cl)c4c(NS(C)(=O)=O)nn(CCN5C[C@@H]6C[C@H]5CC6(F)F)c34)c(=O)c12` (atropisomer, axis not shown; (P)) [Example 311, N-[(1S)-1-[(3P)-3-(4-chloro-1-{2-[(1S,4S)-5,5-difluoro-2-azabicyclo[2.2.1]heptan-2-yl]ethyl}-3-methanesulfonamido-1H-indazol-7-yl)-7-(4,4-difluorocyclohexyl)-5-methyl-4-oxo-3H,4H-pyrido[2,3-d]pyrimidin-2-yl]-2-(3,5-difluorophenyl)ethyl]-2-[(2S,4S)-9-cyclopropyl-7,8-diazatricyclo[4.3.0.0^2,^4]nona-1(6),8-dien-7-yl]acetamide], the concentration giving a half-maximal response (EC50) in data set [1] is 0.013 nM. Besides, in data set [2], the CC50 at 4 days is more than 50 nM.
The like results for `CS(=O)(=O)Nc1nn(CCN2CC(C(F)F)C2)c2c(-n3c([C@H](Cc4cc(F)cc(F)c4)NC(=O)Cn4nc(C(F)F)c5c4C(F)(F)[C@@H]4C[C@H]54)nc4nc(C5CCC(F)(F)CC5)cc(C(F)F)c4c3=O)ccc(Cl)c12` (atropisomer, axis not shown; (P)) [Example 315, N-[(1S)-1-[(3P)-3-(4-chloro-1-{2-[3-(difluoromethyl)azetidin-1-yl]ethyl}-3-methanesulfonamido-1H-indazol-7-yl)-7-(4,4-difluorocyclohexyl)-5-(difluoromethyl)-4-oxo-3H,4H-pyrido[2,3-d]pyrimidin-2-yl]-2-(3,5-difluorophenyl)ethyl]-2-[(2S,4R)-9-(difluoromethyl)-5,5-difluoro-7,8-diazatricyclo[4.3.0.0^2,^4]nona-1(6),8-dien-7-yl]acetamide] were, in that order, 0.025 nM and more than 50 nM.
The like results for `CS(=O)(=O)Nc1nn(CCN2CCC(F)(F)CC2)c2c(-n3c([C@H](Cc4cc(F)cc(F)c4)NC(=O)Cn4nc(C(F)F)c5c4C(F)(F)[C@@H]4C[C@H]54)nc4nc(C5CCC(F)(F)CC5)cc(C5CC5)c4c3=O)ccc(Cl)c12` (atropisomer, axis not shown; (P)) [Example 321, N-[(1S)-1-[(3P)-3-{4-chloro-1-[2-(4,4-difluoropiperidin-1-yl)ethyl]-3-methanesulfonamido-1H-indazol-7-yl}-5-cyclopropyl-7-(4,4-difluorocyclohexyl)-4-oxo-3H,4H-pyrido[2,3-d]pyrimidin-2-yl]-2-(3,5-difluorophenyl)ethyl]-2-[(2S,4R)-9-(difluoromethyl)-5,5-difluoro-7,8-diazatricyclo[4.3.0.0^2,^4]nona-1(6),8-dien-7-yl]acetamide] were, in that order, 0.02 nM and more than 50 nM.
For `CS(=O)(=O)Nc1nn(CCN2C[C@H](F)C[C@H](F)C2)c2c(-n3c([C@H](Cc4cc(F)cc(F)c4)NC(=O)Cn4nc(C(F)F)c5c4C(F)(F)[C@@H]4C[C@H]54)nc4nc(C5CCC(F)(F)CC5)cc(C5CC5)c4c3=O)ccc(Cl)c12` (atropisomer, axis not shown; (P)) [Example 322, N-[(1S)-1-[(3P)-3-(4-chloro-1-{2-[(3R,5S)-3,5-difluoropiperidin-1-yl]ethyl}-3-methanesulfonamido-1H-indazol-7-yl)-5-cyclopropyl-7-(4,4-difluorocyclohexyl)-4-oxo-3H,4H-pyrido[2,3-d]pyrimidin-2-yl]-2-(3,5-difluorophenyl)ethyl]-2-[(2S,4R)-9-(difluoromethyl)-5,5-difluoro-7,8-diazatricyclo[4.3.0.0^2,^4]nona-1(6),8-dien-7-yl]acetamide], in that order: 0.009 nM and more than 50 nM.
As for `C[C@@H]1CN(CCn2nc(NS(C)(=O)=O)c3c(Cl)ccc(-n4c([C@H](Cc5cc(F)cc(F)c5)NC(=O)Cn5nc(C6CC6)c6c5C[C@@H]5C[C@H]65)nc5nc(C6CCC(F)(F)CC6)cc(C6CC6)c5c4=O)c32)C[C@H](C)O1` (atropisomer, axis not shown; (P)) [Example 324, N-[(1S)-1-[(3P)-3-(4-chloro-1-{2-[(2R,6S)-2,6-dimethylmorpholin-4-yl]ethyl}-3-methanesulfonamido-1H-indazol-7-yl)-5-cyclopropyl-7-(4,4-difluorocyclohexyl)-4-oxo-3H,4H-pyrido[2,3-d]pyrimidin-2-yl]-2-(3,5-difluorophenyl)ethyl]-2-[(2S,4S)-9-cyclopropyl-7,8-diazatricyclo[4.3.0.0^2,^4]nona-1(6),8-dien-7-yl]acetamide], the concentration giving a half-maximal response (EC50) in data set [1] came to 0.014 nM. Besides, the CC50 at 4 days in data set [2] is more than 50 nM.
For the molecule `CS(=O)(=O)Nc1nn(CCN2C[C@H]3CC[C@@H](C2)O3)c2c(-n3c([C@H](Cc4cc(F)cc(F)c4)NC(=O)Cn4nc(C5CC5)c5c4C[C@@H]4C[C@H]54)nc4nc(C5CCC(F)(F)CC5)cc(C5CC5)c4c3=O)ccc(Cl)c12` (atropisomer, axis not shown; (P)) [Example 325, N-[(1S)-1-[(3P)-3-(4-chloro-3-methanesulfonamido-1-{2-[(1R,5S)-8-oxa-3-azabicyclo[3.2.1]octan-3-yl]ethyl}-1H-indazol-7-yl)-5-cyclopropyl-7-(4,4-difluorocyclohexyl)-4-oxo-3H,4H-pyrido[2,3-d]pyrimidin-2-yl]-2-(3,5-difluorophenyl)ethyl]-2-[(2S,4S)-9-cyclopropyl-7,8-diazatricyclo[4.3.0.0^2,^4]nona-1(6),8-dien-7-yl]acetamide], the EC50 in data set [1] was found to be 0.009 nM. Moreover, in data set [2], the CC50 at 4 days was more than 50 nM.
Turning to `CS(=O)(=O)Nc1nn(CCN2C[C@H](F)C[C@H](F)C2)c2c(-n3c([C@H](Cc4cc(F)cc(F)c4)NC(=O)Cn4nc(C5CC5)c5c4C[C@@H]4C[C@H]54)nc4nc(C5CCC(F)(F)CC5)cc(C5CC5)c4c3=O)ccc(Cl)c12` (atropisomer, axis not shown; (P)) [Example 327, N-[(1S)-1-[(3P)-3-(4-chloro-1-{2-[(3R,5S)-3,5-difluoropiperidin-1-yl]ethyl}-3-methanesulfonamido-1H-indazol-7-yl)-5-cyclopropyl-7-(4,4-difluorocyclohexyl)-4-oxo-3H,4H-pyrido[2,3-d]pyrimidin-2-yl]-2-(3,5-difluorophenyl)ethyl]-2-[(2S,4S)-9-cyclopropyl-7,8-diazatricyclo[4.3.0.0^2,^4]nona-1(6),8-dien-7-yl]acetamide], the EC50 in data set [1] was determined as 0.008 nM. For the same molecule, the CC50 at 4 days in data set [2] was more than 50 nM.
For `CS(=O)(=O)Nc1nn(CCN2CCC(F)(F)C2)c2c(-n3c([C@H](Cc4cc(F)cc(F)c4)NC(=O)Cn4nc(C(F)F)c5c4C(F)(F)[C@@H]4C[C@H]54)nc4nc(C5CCC(F)(F)CC5)cc(C5CC5)c4c3=O)ccc(Cl)c12` (atropisomer, axis not shown; (P)) [Example 354, N-[(1S)-1-[(3P)-3-{4-chloro-1-[2-(3,3-difluoropyrrolidin-1-yl)ethyl]-3-methanesulfonamido-1H-indazol-7-yl}-5-cyclopropyl-7-(4,4-difluorocyclohexyl)-4-oxo-3H,4H-pyrido[2,3-d]pyrimidin-2-yl]-2-(3,5-difluorophenyl)ethyl]-2-[(2S,4R)-9-(difluoromethyl)-5,5-difluoro-7,8-diazatricyclo[4.3.0.0^2,^4]nona-1(6),8-dien-7-yl]acetamide], in that order: 0.022 nM and more than 50 nM.
